In ChEMBL document CHEMBL5331095, “Structure-activity relationship and biological evaluation of xanthine derivatives as PCSK9 inhibitors for the treatment of atherosclerosis” (Eur J Med Chem, 2023):
Calls of active or inactive are those of the source. The rule behind the calls is not given here.

Columns and labels:
[1] = biological target: Proprotein convertase subtilisin/kexin type 9 (Homo sapiens) (UniProt Q8NBP7); assay: Inhibition of PCSK9 transcriptional activity in human HepG2 cells stably expressing luciferase reporter plasmid containing PCSK9 promoter assessed as decrease in luciferase activity at 10 ug/ml incubated for 24 hrs by Luciferase assay relative to control; format: cell-based; settings: dose 10.0 µg/ml
[2] = Acute toxicity in C57BL/6 mouse assessed as survival upto 1000 mg/kg, IG and measured every day for 1 week; format: organism-based; settings: in vivo, po, 168 h, time 1 weeks
[3] = biological target: Proprotein convertase subtilisin/kexin type 9 (Homo sapiens) (UniProt Q8NBP7); assay: Inhibition of PCSK9 in human HepG2 cells assessed as fold increase in LDL-cholesterol cellular uptake by measuring DiI fluorescence at 25 uM incubated for 24 hrs by Dil-LDL staining based flow cytometry analysis relative to control; format: cell-based
Mus musculus [4] = assay: In vivo inhibition of PCSK9 in high-fat diet fed ApoE knockout C57BL/6 mouse assessed as decrease in PCSK9 expression in serum at 30 mg/kg, IG for 8 weeks by ELISA; format: functional, organism-based
Mus musculus [5] = assay: Antiatherosclerotic activity in high-fat diet fed ApoE knockout C57BL/6 mouse assessed as decrease in high-fat diet induced increase in body weight at 30 mg/kg, IG for 8 weeks; format: functional, organism-based
Mus musculus [6] = assay: Antiatherosclerotic activity in high-fat diet fed ApoE knockout C57BL/6 mouse assessed as decrease in serum total cholesterol level at 30 mg/kg, IG for 8 weeks by lipid profiling assay; format: functional, organism-based
[7] = biological target: Proprotein convertase subtilisin/kexin type 9 (Homo sapiens) (UniProt Q8NBP7); assay: Inhibition of PCSK9 in human HepG2 cells assessed as increase in LDLR protein expression level at 2.5 to 25 uM incubated for 24 hrs by Western blot analysis; format: cell-based; settings: dose 2.5-25 µM
Mus musculus [8] = assay: In vivo inhibition of PCSK9 in high-fat diet fed ApoE knockout C57BL/6 mouse assessed as decrease in PCSK9 expression in liver at 30 mg/kg, IG for 8 weeks by Western blot analysis; format: functional, organism-based
[9] = biological target: Proprotein convertase subtilisin/kexin type 9 (Homo sapiens) (UniProt Q8NBP7); assay: Inhibition of PCSK9 in human HepG2 cells assessed as decrease in PCSK9 protein expression level at 2.5 to 25 uM incubated for 24 hrs by Western blot analysis; format: cell-based; settings: dose 2.5-25 µM
[10] = tested on: PCSK9 transcriptional activity; assay: Therapeutic index, ratio of TC50 for cytotoxicity against human HepG2 cells to IC50 for inhibition of PCSK9 transcriptional activity in human HepG2 cells stably expressing luciferase reporter plasmid containing PCSK9 promoter; format: toxicity, cell-based
Mus musculus [11] = assay: Antiatherosclerotic activity in high-fat diet fed ApoE knockout C57BL/6 mouse assessed as decrease in serum triglyceride level at 30 mg/kg, IG for 8 weeks by lipid profiling assay; format: functional, organism-based
[12] = biological target: Proprotein convertase subtilisin/kexin type 9 (Homo sapiens) (UniProt Q8NBP7); assay: Inhibition of PCSK9 in human HepG2 cells assessed as increase in LDL-cholesterol cellular uptake by measuring DiI fluorescence at 2.5 to 25 uM incubated for 24 hrs by Dil-LDL staining based flow cytometry analysis; format: cell-based; settings: dose 2.5-25 µM
[13] = Acute toxicity in C57BL/6 mouse assessed as behavioral change upto 1000 mg/kg, IG and measured every day for 1 week; format: organism-based; settings: in vivo, po, 168 h, time 1 weeks
[14] = Acute toxicity in C57BL/6 mouse assessed as lethality upto 1000 mg/kg, IG and measured every day for 1 week; format: organism-based; settings: in vivo, po, time 1 weeks
[15] = Acute toxicity in C57BL/6 mouse assessed as body weight change upto 1000 mg/kg, IG and measured every day for 1 week; format: organism-based; settings: in vivo, po, 168 h, time 1 weeks
[16] = Cytotoxicity against human HepG2 cells assessed as reduction in cell viability by measuring toxic concentration incubated for 24 hrs by MTT assay; format: toxicity, cell-based; settings: read-out: TC50

Chain of Proprotein convertase subtilisin/kexin type 9 (Homo sapiens) (Q8NBP7 31-152 limits assumed): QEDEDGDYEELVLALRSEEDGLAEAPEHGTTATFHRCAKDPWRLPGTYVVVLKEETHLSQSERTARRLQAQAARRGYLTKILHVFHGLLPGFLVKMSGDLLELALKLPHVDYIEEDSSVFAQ
Chain of Proprotein convertase subtilisin/kexin type 9 (Homo sapiens) (Q8NBP7 153-692 limits assumed): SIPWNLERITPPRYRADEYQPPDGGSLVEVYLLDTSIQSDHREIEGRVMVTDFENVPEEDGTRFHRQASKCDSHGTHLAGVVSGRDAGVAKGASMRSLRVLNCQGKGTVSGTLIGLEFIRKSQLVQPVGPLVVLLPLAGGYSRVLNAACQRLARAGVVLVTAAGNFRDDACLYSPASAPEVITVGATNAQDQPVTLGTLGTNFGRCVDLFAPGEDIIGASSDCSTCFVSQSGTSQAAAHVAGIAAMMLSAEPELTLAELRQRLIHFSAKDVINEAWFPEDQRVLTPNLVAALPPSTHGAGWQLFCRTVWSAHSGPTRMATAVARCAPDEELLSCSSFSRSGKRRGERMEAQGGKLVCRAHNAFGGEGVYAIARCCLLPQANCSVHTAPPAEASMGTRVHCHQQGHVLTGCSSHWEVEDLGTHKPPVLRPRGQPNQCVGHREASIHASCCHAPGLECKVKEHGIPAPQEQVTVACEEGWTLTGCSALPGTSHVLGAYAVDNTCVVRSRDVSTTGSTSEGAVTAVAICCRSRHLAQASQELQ

| inhibition [1] [%] | Compound | further results |
| --- | --- | --- |
| 19.6 | COc1cccc(Cn2c(NCCN(C)C)nc3c2c(=O)n(C)c(=O)n3C)c1 | – |
| 76.5 | COc1ccc(Cn2c(NCCO)nc3c2c(=O)n(C)c(=O)n3C)cc1 | – |
| 59.2 | COc1cccc(Cn2c(NCC(N)=O)nc3c2c(=O)n(C)c(=O)n3C)c1 | – |
| 9 | COc1cccc(Cn2c(NCCCCCCO)nc3c2c(=O)n(C)c(=O)n3C)c1 | – |
| 84.7 | Cn1c(=O)c2c(nc(NCCO)n2Cc2cccc(OC(F)(F)F)c2)n(C)c1=O | – |
| 16.3 | COc1cccc(Cn2c(N3CCOCC3)nc3c2c(=O)n(C)c(=O)n3C)c1 | – |
| 53.3 | Cn1c(=O)c2c(nc(NCCO)n2Cc2ccccc2Br)n(C)c1=O | – |
| -9.3 | COc1cccc(Cn2c(Nc3cccc(O)c3)nc3c2c(=O)n(C)c(=O)n3C)c1 | – |
| 20.2 | Cn1c(=O)c2c(nc(NCCO)n2Cc2ccccc2[N+](=O)[O-])n(C)c1=O | – |
| 81 | COc1cccc(Cn2c(N[C@@H](C)CO)nc3c2c(=O)n(C)c(=O)n3C)c1 | – |
| 79.9 | Cn1c(=O)c2c(nc(NCCO)n2Cc2cc(F)ccc2F)n(C)c1=O | – |
| 81.7 | COc1cccc(Cn2c(NC[C@@H](C)O)nc3c2c(=O)n(C)c(=O)n3C)c1 | selectivity ratio [10]: 22.9; CC50 at 24 h [16]: 89.2 µM |
| 0.8 | COc1cccc(Cn2c(N3CCCCC3CN3CCCC3)nc3c2c(=O)n(C)c(=O)n3C)c1 (configuration not stated) | – |
| 23.3 | Cn1c(=O)c2c(nc(NCCO)n2Cc2ccc([N+](=O)[O-])cc2)n(C)c1=O | – |
| 87 | Cn1c(=O)c2c(nc(NCCO)n2Cc2ccc(F)c(C(F)(F)F)c2)n(C)c1=O | selectivity ratio [10]: 7.1; CC50 at 24 h [16]: 55.1 µM |
| 76.1 | Cn1c(=O)c2c(nc(NCCO)n2Cc2ccc(F)cc2F)n(C)c1=O | – |
| 43.3 | Cn1c(=O)c2c(nc(NCCO)n2Cc2cc(F)cc(F)c2)n(C)c1=O | – |
| 92.6 | Cn1c(=O)c2c(nc(NCCO)n2Cc2cccc(F)c2)n(C)c1=O | – |
| 68.4 | COC(=O)CNc1nc2c(c(=O)n(C)c(=O)n2C)n1Cc1cccc(OC)c1 | – |
| 16.7 | COc1cccc(Cn2c(NCCC3CCN(C)C3)nc3c2c(=O)n(C)c(=O)n3C)c1 (configuration not stated) | – |
| 16.2 | COc1ccc(Cn2c(NCCO)nc3c2c(=O)n(C)c(=O)n3C)cc1OC | – |
| 12.1 | CCCn1c(NCCO)nc2c1c(=O)n(C)c(=O)n2C | – |

| Compound | inhibition [1] [%] | further results |
| --- | --- | --- |
| Cn1c(=O)c2c(nc(NCCO)n2Cc2cccc(Cl)c2F)n(C)c1=O | 95.8 | Activity [2]: Non-Toxic; fold change (FC) [3]: 1.7; inhibition (Mus musculus [4]): inactive; Activity (Mus musculus [5]): Active; Activity (Mus musculus [6]): inactive; inhibition [7]: Dose-Dependent Effect; inhibition (Mus musculus [8]): Active; inhibition [9]: Dose-Dependent Effect; selectivity ratio [10]: > 35.1; Activity (Mus musculus [11]): inactive; inhibition [12]: Dose-Dependent Effect; Activity [13]: Non-Toxic; LD50 at 168 h [14]: > 1000 mg/kg; Activity [15]: Non-Toxic; CC50 at 24 h [16]: > 200 µM |
